Laboratory results published in paper PMC9499525, “Tissue-restricted inhibition of mTOR using chemical genetics” (Proceedings of the National Academy of Sciences of the …, 2022).

Legend:
[1] = target: T1, FKBP12-HA (wild-type) / GST-mTOR FRB domain ternary complex (Homo sapiens, UniProt P42345+P62942); test: TR-FRET ternary complex formation, wild-type FKBP12 with mTOR FRB; format: binding; conditions: wild-type FKBP12 + mTOR FRB, n = 3, read-out: EC50 of ternary complex induction, wild-type FKBP12
T1 construct: recombinant HA-tagged wild-type or V55G mutant FKBP12 with GST-tagged mTOR FRB domain; 8xHis (cleaved yes); made in house; host or cells: E. coli BL21 (DE3) for FKBP12
Method: TR-FRET assay was performed using recommended conditions from Cisbio with slight modifications. FKBP12-HA, FKBP12 V55G-HA, and GST-mTORFRB recombinant proteins were each diluted to 5 nM in assay buffer (20 mM HEPES pH 7.5, 150 mM NaCl, 0.05% Tween-20, 0.1% bovine serum albumin [BSA], 0.5 mM dithiothreitol [DTT]). Anti-GST-Tb (Cisbio) and Anti-HA-XL665 (Cisbio) were diluted to 0.625 µg/mL and 5 µg/mL, respectively, in assay buffer. Rapa* compounds and FK506 were diluted to 50 µM and rapamycin to 5 µM in assay buffer containing 5% DMSO, and threefold serial dilution series were made from these solutions. […] Time-resolved fluorescence was read on a Tecan Spark 20M plate reader with the following parameters: Lag time: 60 µs; Integration time: 500 µs; Read A: Excitation filter 320 ([25]) nm, Emission filter 610 ([25]) nm, Gain 130; Read B: Excitation filter 320 ([25]) nm, Emission filter 665 ([8]) nm, Gain 165. […]
Human FKBP12 coding sequence was cloned a pET-47b bacterial expression vector using Gibson assembly and a C-terminal HA-tag was added by QuickChange PCR. FKBP12 proteins were expressed as 8xHis fusions in E. coli BL21 (DE3) cells. […]
PAMPA was performed by Quintara Discovery as described previously (2). Compounds were analyzed at 100 µM in PBS and measured using liquid chromatography-mass spectrometry (LC-MS) after 5 hours. […]

[2] = system: Flp-In 293 cells with and without FKBP12 V55G-HA; test: Cell growth by CellTiter-Glo in Flp-In 293 cells; format: cell-based, human; conditions: 72 h treatment
Method: All cell lines were maintained in DMEM (Gibco) supplemented with 10% heat-inactivated FBS (Axenia Biologix) at 37 °C in 5% CO2. Flp-In T-REx 293 cells were obtained from Thermo Fisher supplemented with 15 µg/mL blasticin and 100 µg/mL Zeocin. […] When indicated, cells were treated with drugs at 60–80% confluency at a final DMSO concentration of 0.1%.
Cells were seeded into 96-well tissue-culture treated plates (Greiner) and were allowed to incubate for 24 h. Cells were treated with indicated compounds and incubated for 72 h (100 µL final well volume, 0.1% DMSO). Cell viability was assessed by CellTiter-Glo (Promega). Assay reagent was diluted 1:4 in PBS containing 1% Triton X-100, and 100 µL was added to each well and mixed on a plate shaker for 20 min. Luminescence was measured on a Tecan Spark 20M.

[3] = Bidirectional Caco-2 cell permeability; format: in vitro ADME; conditions: human, LC-MS
Method: PAMPA and Caco-2 membrane permeability assays […]
MS) after 5 hours. Bidirectional Caco-2 cell permeability assay was performed by Quintara
Discovery. Compounds were analyzed at 10 µM and measured by LC-MS after 1 hour.

[4] = target: T2, FKBP12 V55G-HA / GST-mTOR FRB domain ternary complex (Homo sapiens, UniProt P42345+P62942, V56G); test: TR-FRET ternary complex formation, FKBP12 V55G with mTOR FRB; format: binding; conditions: FKBP12 V55G + mTOR FRB, n = 3, read-out: EC50 of ternary complex induction, FKBP12 V55G
T2 construct: recombinant HA-tagged wild-type or V55G mutant FKBP12 with GST-tagged mTOR FRB domain; 8xHis (cleaved yes); made in house; host or cells: E. coli BL21 (DE3) for FKBP12
Method: TR-FRET assay was performed using recommended conditions from Cisbio with slight modifications. FKBP12-HA, FKBP12 V55G-HA, and GST-mTORFRB recombinant proteins were each diluted to 5 nM in assay buffer (20 mM HEPES pH 7.5, 150 mM NaCl, 0.05% Tween-20, 0.1% bovine serum albumin [BSA], 0.5 mM dithiothreitol [DTT]). Anti-GST-Tb (Cisbio) and Anti-HA-XL665 (Cisbio) were diluted to 0.625 µg/mL and 5 µg/mL, respectively, in assay buffer. Rapa* compounds and FK506 were diluted to 50 µM and rapamycin to 5 µM in assay buffer containing 5% DMSO, and threefold serial dilution series were made from these solutions. We mixed 4 µL diluted FKBP12-HA protein, 4 µL diluted GST-mTORFRB, and 4 µL of compound or DMSO control in a well of a black low-volume 384-well plate (Corning 4514), and the mixture was incubated at room temperature for 1 h. We then added 4 µL of Anti-GST-Tb, and 4 µL Anti-HA-XL665, and the mixture was incubated at room temperature for an additional 1 h. Time-resolved fluorescence was read on a Tecan Spark 20M plate reader with the following parameters: Lag time: 60 µs; Integration time: 500 µs; Read A: Excitation filter 320 ([25]) nm, Emission filter 610 ([25]) nm, Gain 130; Read B: Excitation filter 320 ([25]) nm, Emission filter 665 ([8]) nm, Gain 165. Three replicates were performed for each assay condition. […]
Human FKBP12 coding sequence was cloned a pET-47b bacterial expression vector using Gibson assembly and a C-terminal HA-tag was added by QuickChange PCR. FKBP12 proteins were expressed as 8xHis fusions in E. coli BL21 (DE3) cells. […] Samples were then purified by size exclusion chromatography, concentrated to 10-20 mg/mL, and snap frozen in liquid nitrogen. pGEX-2T FRB was a gift from Jie Chen (Addgene plasmid #26607). mTOR FRB was expressed as a GST-fusion and purified as previously described (1). […]
PAMPA was performed by Quintara Discovery as described previously (2). Compounds were analyzed at 100 µM in PBS and measured using liquid chromatography-mass spectrometry (LC-MS) after 5 hours. […] Compounds were analyzed at 10 µM and measured by LC-MS after 1 hour.

[5] = PAMPA membrane permeability; format: in vitro ADME; conditions: 100 µM in PBS, LC-MS
Method: PAMPA and Caco-2 membrane permeability assays
PAMPA was performed by Quintara Discovery as described previously (2). Compounds were
analyzed at 100 µM in PBS and measured using liquid chromatography-mass spectrometry (LC-

T1 sequence (P62942 whole entry, the tested form may be a part): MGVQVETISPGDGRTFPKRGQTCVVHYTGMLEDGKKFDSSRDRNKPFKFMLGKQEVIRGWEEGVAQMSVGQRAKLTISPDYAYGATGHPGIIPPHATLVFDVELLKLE
T1 sequence (P42345 2012-2144 limits assumed): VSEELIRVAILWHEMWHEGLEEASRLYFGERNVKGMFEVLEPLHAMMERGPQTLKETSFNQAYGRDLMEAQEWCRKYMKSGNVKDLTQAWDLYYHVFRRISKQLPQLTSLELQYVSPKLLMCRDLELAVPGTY
T2 sequence (P62942 whole entry V56G, the tested form may be a part): as the sequence (P62942 whole entry, the tested form may be a part) above, with V56G counted along it
T2 sequence (P42345 2012-2144 limits assumed): as the sequence (P42345 2012-2144 limits assumed) above

With CCO/N=C1/C[C@@H]([C@H](C)C[C@@H]2CC[C@@H](O)[C@H](OC)C2)OC(=O)[C@@H]2CCCCN2C(=O)C(=O)[C@]2(O)O[C@@H](CC[C@H]2C)C[C@H](OC)/C(C)=C/C=C/C=C/[C@@H](C)C[C@@H](C)C(=O)[C@H](OC)[C@H](O)/C(C)=C/[C@H]1C [Rapa*-3Z] the EC50 [1] was 639 nM, the “Cell growth inhibition, 293 cells with and without FKBP12 V55G” value [2] was “selectively inhibited growth of mutant-expressing 293 cells” and the Papp A→B at 1 h, 10 µM [3] was less than 0.5 ×10⁻⁶ cm/s. For the same compound, the Papp B→A at 1 h, 10 µM [3] was 1 ×10⁻⁶ cm/s, the EC50 [4] was 11.8 nM and the Papp at 5 h, 100 µM [5] was 0.053 ×10⁻⁶ cm/s.
